{"source": "patent US9890146B2", "about": "“Compound having selective EP2 agonist activity” (ONO PHARMACEUTICAL CO., LTD., priority 2014, dated 2018)", "tested_on": "male monkey (a cynomolgus monkey)", "assay": "Intraocular pressure lowering activity after ocular instillation", "format": "in vivo", "details": "Primates, in Macaca fascicularis, topical, maximum rate during 24 hours after ocular instillation of 30 μL, conscious monkey; for inhibition in vivo at 3 µg/mL: administration concentration 3 μg/mL; for inhibition in vivo at 10 µg/mL: administration concentration 10 μg/mL; for inhibition in vivo at 30 µg/mL: administration concentration 30 μg/mL", "method": "As can be easily understood by a person skilled in the art, in an in vivo test, since regarding all test compounds, carboxylic acid which is an active body has poor corneal permeability, pharmacological action of the active body was evaluated by ocular instillation administration of a compound which had been converted into an ester such as an ethyl ester or an isopropyl ester, or an alcohol.\nA test compound-containing solution (30 μL) which had been adjusted to each of various concentrations was ocular instillation-administered to the left or right eye of a male monkey (a cynomolgus monkey) under consciousness. An intraocular pressure after administration was measured with time from administration initiation to after 24 hours. Upon measurement of an intraocular pressure, a cynomolgus monkey was fixed on a monkey chair, and the monkey was anesthetized by ocular instillation-administering an ocular surface anesthetic (Benoxil eye drops 0.4% Santen Pharmaceutical Co., Ltd.). After mounting of a blepharostat (Handaya Co., Ltd.), an intraocular pressure of both eyes was measured (7 to 8 examples per group) using a pneumatic applanation flat tonometer (Model 30 Classic, REICHERT). A difference between an intraocular pressure value before the administration of a test substance and an intraocular pressure value after the administration of the test substance was calculated as an intraocular pressure lowering rate in accordance with the following equation, and the sustainability of intraocular eye lowering action was evaluated using a maximum intraocular pressure lowering rate during measurement.\nThe administered concentrations were determined based on the EP2 agonist activities measured by the above-mentioned method."}
{"smiles": "Cc1cc(OC[C@@H]2[C@H]3CC[C@H](c4nc(CO)cs4)O[C@H]3C[C@H]2O)ccc1Cl", "note": "[2(13), (2R,4aR,5S,6R,7aS)-5-[(4-chloro-3-methylphenoxy)methyl]-2-[4-(hydroxymethyl)-1,3-thiazol-2-yl]octahydrocyclopenta[b]pyran-6-ol]", "values": [{"measurement": "inhibition in vivo at 3 µg/mL", "result": 31, "unit": "%"}]}
{"smiles": "OCc1csc([C@H]2CC[C@@H]3[C@@H](COc4ccc(C5CC5)c(C5CC5)c4)[C@@H](O)C[C@@H]3O2)n1", "note": "[Example 10, (2R,4aR,5S,6S,7aS)-5-[(3,4-dicyclopropylphenoxy)methyl]-2-[4-(hydroxymethyl)-1,3-thiazol-2-yl]octahydrocyclopenta[b]pyran-6-ol]", "values": [{"measurement": "inhibition in vivo at 10 µg/mL", "result": 40, "unit": "%"}]}
{"smiles": "Cc1ccc(OC[C@@H]2[C@H]3CC[C@H](c4nc(CO)cs4)O[C@H]3C[C@@H]2O)cc1Cl", "note": "[10(21), (2R,4aR,5S,6S,7aS)-5-[(3-chloro-4-methylphenoxy)methyl]-2-[4-(hydroxymethyl)-1,3-thiazol-2-yl]octahydrocyclopenta[b]pyran-6-ol]", "values": [{"measurement": "inhibition in vivo at 1 µg/mL", "setting": "administration concentration 1 μg/mL", "result": 44, "unit": "%"}]}
{"smiles": "OCc1csc([C@H]2CC[C@@H]3[C@@H](COc4ccc5[nH]ccc5c4)[C@H](O)C[C@@H]3O2)n1", "note": "[2(5), (2R,4aR,5S,6R,7aS)-2-[4-(hydroxymethyl)-1,3-thiazol-2-yl]-5-[(1H-indol-5-yloxy)methyl]octahydrocyclopenta[b]pyran-6-ol]", "values": [{"measurement": "inhibition in vivo at 30 µg/mL", "result": 48, "unit": "%"}]}
{"smiles": "OCc1csc([C@H]2CC[C@@H]3[C@@H](COc4ccc5c(c4)CCC5)[C@H](O)C[C@@H]3O2)n1", "note": "[2(4), (2R,4aR,5S,6R,7aS)-5-[(2,3-dihydro-1H-inden-5-yloxy)methyl]-2-[4-(hydroxymethyl)-1,3-thiazol-2-yl]octahydrocyclopenta[b]pyran-6-ol]", "values": [{"measurement": "inhibition in vivo at 100 µg/mL", "setting": "administration concentration 100 μg/mL", "result": 40, "unit": "%"}]}
{"smiles": "OCc1csc([C@H]2CC[C@@H]3[C@@H](COc4ccc5c(c4)CCCC5)[C@@H](O)C[C@@H]3O2)n1", "note": "[10(7), (2R,4aR,5S,6S,7aS)-2-[4-(hydroxymethyl)-1,3-thiazol-2-yl]-5-[(5,6,7,8-tetrahydro-2-naphthalenyloxy)methyl]octahydrocyclopenta[b]pyran-6-ol]", "values": [{"measurement": "inhibition in vivo at 10 µg/mL", "result": 41, "unit": "%"}]}
{"smiles": "CCc1ccc(OC[C@@H]2[C@H]3CC[C@H](c4nc(CO)cs4)O[C@H]3C[C@@H]2O)cc1C1CC1", "note": "[10(15), (2R,4aR,5S,6S,7aS)-5-[(3-cyclopropyl-4-ethylphenoxy)methyl]-2-[4-(hydroxymethyl)-1,3-thiazol-2-yl]octahydrocyclopenta[b]pyran-6-ol]", "values": [{"measurement": "inhibition in vivo at 3 µg/mL", "result": 37, "unit": "%"}]}
{"smiles": "OCc1csc([C@H]2CC[C@@H]3[C@@H](COc4cccc5c4CCC5)[C@H](O)C[C@@H]3O2)n1", "note": "[2(14), (2R,4aR,5S,6R,7aS)-5-[(2,3-dihydro-1H-inden-4-yloxy)methyl]-2-[4-(hydroxymethyl)-1,3-thiazol-2-yl]octahydrocyclopenta[b]pyran-6-ol]", "values": [{"measurement": "inhibition in vivo at 30 µg/mL", "result": 45, "unit": "%"}]}
{"smiles": "CCc1ccc(OC[C@@H]2[C@H]3CC[C@H](c4nc(CO)cs4)O[C@H]3C[C@@H]2O)cc1CC", "note": "[10(32), (2R,4aR,5S,6S,7aS)-5-[(3,4-diethylphenoxy)methyl]-2-[4-(hydroxymethyl)-1,3-thiazol-2-yl]octahydrocyclopenta[b]pyran-6-1]", "values": [{"measurement": "inhibition in vivo at 3 µg/mL", "result": 41, "unit": "%"}]}
